Reference: article PMC4893628, “Chalcone-based Selective Inhibitors of a C4 Plant Key Enzyme as Novel Potential Herbicides” (Scientific Reports, 2016)
Where two headings read alike, the source gives them in different places.

Tests used:
[1] = system: Pseudomonas putida KT2440; assay: Bacterial growth in microscale cultivation, P. putida; format: cell-based; conditions: relative to control; for activity at 4 µM / activity at 40 µM / activity at 400 µM: Pseudomonas putida
Outline: (§1)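 Inhibitors in DMSO were added to the medium, at a maximum of 400 μM for trans-chalcone and 100 μM for 2'-hydroxychalcone. Cultures were seeded at OD600 0.5, or 0.25 for B. subtilis, and growth was followed as 620 nm backscatter in a BioLector at 1200 rpm. Final backscatter, growth rate and lag phase were compared with DMSO controls.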

[2] = system: Escherichia coli K-12 MG1655; assay: Bacterial growth in microscale cultivation, E. coli; format: cell-based; conditions: relative to control; for activity at 4 µM / activity at 40 µM / activity at 400 µM: Escherichia coli
Outline: as §1

F. trinervia PEPC = target: T1, F. trinervia PEPC (Flaveria trinervia, UniProt P30694); assay: biochemical; format: biochemical; conditions: for Selectivity C4/C3: C4 PEPC over C3 isoform; for IC50: C4 PEPC
T1 construct: the full-length ppcA gene of PEPC from F. trinervia (EMBL-Bank X61304); made in house; host or cells: Escherichia coli BL21(DE3)
T1 sequence (P30694 1-966): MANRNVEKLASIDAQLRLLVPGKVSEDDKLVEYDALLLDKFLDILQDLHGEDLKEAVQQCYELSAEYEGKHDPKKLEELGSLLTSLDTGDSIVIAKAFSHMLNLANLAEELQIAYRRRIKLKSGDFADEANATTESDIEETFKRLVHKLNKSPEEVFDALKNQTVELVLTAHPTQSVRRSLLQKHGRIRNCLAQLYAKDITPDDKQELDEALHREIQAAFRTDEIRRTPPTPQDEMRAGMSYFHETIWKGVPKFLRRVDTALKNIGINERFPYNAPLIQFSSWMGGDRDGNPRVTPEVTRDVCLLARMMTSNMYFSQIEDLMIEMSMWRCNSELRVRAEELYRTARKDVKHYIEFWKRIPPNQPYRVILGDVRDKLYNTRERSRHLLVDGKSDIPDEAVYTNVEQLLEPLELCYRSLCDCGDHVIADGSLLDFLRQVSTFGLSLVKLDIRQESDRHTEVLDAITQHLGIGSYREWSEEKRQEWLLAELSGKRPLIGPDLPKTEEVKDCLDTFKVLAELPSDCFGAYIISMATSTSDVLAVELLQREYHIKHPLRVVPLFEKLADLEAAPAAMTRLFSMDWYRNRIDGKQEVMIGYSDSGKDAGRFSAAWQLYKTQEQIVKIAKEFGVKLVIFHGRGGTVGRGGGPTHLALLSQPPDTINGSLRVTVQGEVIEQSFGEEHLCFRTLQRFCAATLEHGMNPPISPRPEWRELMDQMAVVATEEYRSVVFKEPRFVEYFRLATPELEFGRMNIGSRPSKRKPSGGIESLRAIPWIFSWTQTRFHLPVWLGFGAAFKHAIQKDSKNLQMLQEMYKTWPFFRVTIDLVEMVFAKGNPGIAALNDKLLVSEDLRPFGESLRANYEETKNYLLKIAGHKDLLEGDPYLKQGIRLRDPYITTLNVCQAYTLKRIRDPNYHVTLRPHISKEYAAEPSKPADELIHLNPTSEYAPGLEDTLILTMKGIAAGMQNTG

Bacillus subtilis 168 = assay: Bacterial growth in microscale cultivation, B. subtilis; format: cell-based; conditions: relative to control
Outline: as §1

[3] = KT2440, complex medium, 4 µM, read-out: Final Backscatter
[4] = KT2440, complex medium, 4 µM, read-out: Growth rate
[5] = KT2440, complex medium, 40 µM, read-out: Final Backscatter
[6] = KT2440, complex medium, 40 µM, read-out: Growth rate
[7] = KT2440, complex medium, 400 µM, read-out: Final Backscatter
[8] = KT2440, complex medium, 400 µM, read-out: Growth rate
[9] = KT2440, minimal medium, 4 µM, read-out: Final Backscatter
[10] = KT2440, minimal medium, 4 µM, read-out: Growth rate
[11] = KT2440, minimal medium, 40 µM, read-out: Final Backscatter
[12] = KT2440, minimal medium, 40 µM, read-out: Growth rate
[13] = KT2440, minimal medium, 400 µM, read-out: Final Backscatter
[14] = KT2440, minimal medium, 400 µM, read-out: Growth rate
[15] = MG1655, complex medium, 4 µM, read-out: Final Backscatter
[16] = MG1655, complex medium, 4 µM, read-out: Growth rate
[17] = MG1655, complex medium, 40 µM, read-out: Final Backscatter
[18] = MG1655, complex medium, 40 µM, read-out: Growth rate
[19] = MG1655, complex medium, 400 µM, read-out: Final Backscatter
[20] = MG1655, complex medium, 400 µM, read-out: Growth rate
[21] = MG1655, minimal medium, 4 µM, read-out: Final Backscatter
[22] = MG1655, minimal medium, 4 µM, read-out: Growth rate
[23] = MG1655, minimal medium, 40 µM, read-out: Final Backscatter
[24] = MG1655, minimal medium, 40 µM, read-out: Growth rate
[25] = MG1655, minimal medium, 400 µM, read-out: Final Backscatter
[26] = MG1655, minimal medium, 400 µM, read-out: Growth rate
[27] = Bacillus subtilis, 168, complex medium, 4 µM, read-out: Final Backscatter
[28] = Bacillus subtilis, 168, complex medium, 4 µM, read-out: Growth rate
[29] = Bacillus subtilis, 168, complex medium, 40 µM, read-out: Final Backscatter
[30] = Bacillus subtilis, 168, complex medium, 40 µM, read-out: Growth rate
[31] = Bacillus subtilis, 168, complex medium, 400 µM, read-out: Final Backscatter
[32] = Bacillus subtilis, 168, complex medium, 400 µM, read-out: Growth rate
[33] = Bacillus subtilis, 168, minimal medium, 4 µM, read-out: Final Backscatter
[34] = Bacillus subtilis, 168, minimal medium, 4 µM, read-out: Growth rate
[35] = Bacillus subtilis, 168, minimal medium, 40 µM, read-out: Final Backscatter
[36] = Bacillus subtilis, 168, minimal medium, 40 µM, read-out: Growth rate
[37] = Bacillus subtilis, 168, minimal medium, 400 µM, read-out: Final Backscatter
[38] = Bacillus subtilis, 168, minimal medium, 400 µM, read-out: Growth rate

O=C(/C=C/c1ccc(O)cc1)c1ccc(O)cc1O [Compound 6, 2′,4′,4-Trihydroxychalcone]
activity at 4 µM [1, 3]: 97.7%
activity at 4 µM [1, 4]: 104%
activity at 40 µM [1, 5]: 97.2%
activity at 40 µM [1, 6]: 106%
activity at 400 µM [1, 7]: 99.9%
activity at 400 µM [1, 8]: 100%
activity at 4 µM [1, 9]: 99%
activity at 4 µM [1, 10]: 104%
activity at 40 µM [1, 11]: 103%
activity at 40 µM [1, 12]: 106%
activity at 400 µM [1, 13]: 117%
activity at 400 µM [1, 14]: 104%
Lag Phase ([1]; complex medium, 4 µM): 99,4%
Lag Phase ([1]; complex medium, 40 µM): 101,7%
Lag Phase ([1]; complex medium, 400 µM): 107,3%
Lag Phase ([1]; minimal medium, 4 µM): 103,3%
Lag Phase ([1]; minimal medium, 40 µM): 105,6%
Lag Phase ([1]; minimal medium, 400 µM): 107,8%
activity at 4 µM [2, 15]: 98.8%
activity at 4 µM [2, 16]: 96%
activity at 40 µM [2, 17]: 99.5%
activity at 40 µM [2, 18]: 99.1%
activity at 400 µM [2, 19]: 95%
activity at 400 µM [2, 20]: 89.8%
activity at 4 µM [2, 21]: 100%
activity at 4 µM [2, 22]: 101%
activity at 40 µM [2, 23]: 98.8%
activity at 40 µM [2, 24]: 107%
activity at 400 µM [2, 25]: 97.7%
activity at 400 µM [2, 26]: 96.4%
Lag Phase ([2]; complex medium, 4 µM): 100,0%
Lag Phase ([2]; complex medium, 40 µM): 100,0%
Lag Phase ([2]; complex medium, 400 µM): 107,4%
Lag Phase ([2]; minimal medium, 4 µM): 101,8%
Lag Phase ([2]; minimal medium, 40 µM): 103,5%
Lag Phase ([2]; minimal medium, 400 µM): 101,8%
Selectivity C4/C3 (F. trinervia PEPC): 1.5 fold
IC50 (F. trinervia PEPC; IC50 F. trinervia PEPC): 38.2 ± 10.9 µM
activity at 4 µM (Bacillus subtilis 168; [27]): 97.3%
activity at 4 µM (Bacillus subtilis 168; [28]): 107%
activity at 40 µM (Bacillus subtilis 168; [29]): 99.9%
activity at 40 µM (Bacillus subtilis 168; [30]): 107%
activity at 400 µM (Bacillus subtilis 168; [31]): 91.1%
activity at 400 µM (Bacillus subtilis 168; [32]): 109%
activity at 4 µM (Bacillus subtilis 168; [33]): 100%
activity at 4 µM (Bacillus subtilis 168; [34]): 103%
activity at 40 µM (Bacillus subtilis 168; [35]): 99.7%
activity at 40 µM (Bacillus subtilis 168; [36]): 99%
activity at 400 µM (Bacillus subtilis 168; [37]): 101%
activity at 400 µM (Bacillus subtilis 168; [38]): 88.2%
Lag Phase (Bacillus subtilis 168; complex medium, 4 µM): 100,0%
Lag Phase (Bacillus subtilis 168; complex medium, 40 µM): 102,6%
Lag Phase (Bacillus subtilis 168; complex medium, 400 µM): 128,1%
Lag Phase (Bacillus subtilis 168; minimal medium, 4 µM): 98,9%
Lag Phase (Bacillus subtilis 168; minimal medium, 40 µM): 102,2%
Lag Phase (Bacillus subtilis 168; minimal medium, 400 µM): 116,3%

O=C(/C=C/c1ccccc1O)c1ccc(O)cc1O [Compound 7, 2′,4′,2-Trihydroxychalcone]
activity at 4 µM [1, 3]: 99.1%
activity at 4 µM [1, 4]: 100%
activity at 40 µM [1, 5]: 95.3%
activity at 40 µM [1, 6]: 101%
activity at 400 µM [1, 7]: 99.9%
activity at 400 µM [1, 8]: 99.6%
activity at 4 µM [1, 9]: 101%
activity at 4 µM [1, 10]: 98.3%
activity at 40 µM [1, 11]: 100%
activity at 40 µM [1, 12]: 94.3%
activity at 400 µM [1, 13]: 99.8%
activity at 400 µM [1, 14]: 106%
Lag Phase ([1]; complex medium, 4 µM): 100,0%
Lag Phase ([1]; complex medium, 40 µM): 100,0%
Lag Phase ([1]; complex medium, 400 µM): 100,0%
Lag Phase ([1]; minimal medium, 4 µM): 111,6%
Lag Phase ([1]; minimal medium, 40 µM): 101,6%
Lag Phase ([1]; minimal medium, 400 µM): 95,6%
activity at 4 µM [2, 15]: 97.2%
activity at 4 µM [2, 16]: 93.3%
activity at 40 µM [2, 17]: 97.3%
activity at 40 µM [2, 18]: 90.7%
activity at 400 µM [2, 19]: 93%
activity at 400 µM [2, 20]: 104%
activity at 4 µM [2, 21]: 98.2%
activity at 4 µM [2, 22]: 99.2%
activity at 40 µM [2, 23]: 97.2%
activity at 40 µM [2, 24]: 105%
activity at 400 µM [2, 25]: 97.4%
activity at 400 µM [2, 26]: 103%
Lag Phase ([2]; complex medium, 4 µM): 107,4%
Lag Phase ([2]; complex medium, 40 µM): 111,1%
Lag Phase ([2]; complex medium, 400 µM): 118,5%
Lag Phase ([2]; minimal medium, 4 µM): 88,9%
Lag Phase ([2]; minimal medium, 40 µM): 99,0%
Lag Phase ([2]; minimal medium, 400 µM): 99,3%
Selectivity C4/C3 (F. trinervia PEPC): 2.3 fold
IC50 (F. trinervia PEPC; read-out: IC50 F. trinervia PEPC): 28.2 ± 2.2 µM
activity at 4 µM (Bacillus subtilis 168; [27]): 99.9%
activity at 4 µM (Bacillus subtilis 168; [28]): 95.9%
activity at 40 µM (Bacillus subtilis 168; [29]): 102%
activity at 40 µM (Bacillus subtilis 168; [30]): 104%
activity at 400 µM (Bacillus subtilis 168; [31]): 98.3%
activity at 400 µM (Bacillus subtilis 168; [32]): 92.5%
activity at 4 µM (Bacillus subtilis 168; [33]): 98.8%
activity at 4 µM (Bacillus subtilis 168; [34]): 107%
activity at 40 µM (Bacillus subtilis 168; [35]): 98.5%
activity at 40 µM (Bacillus subtilis 168; [36]): 107%
activity at 400 µM (Bacillus subtilis 168; [37]): 95.3%
activity at 400 µM (Bacillus subtilis 168; [38]): 70.4%
Lag Phase (Bacillus subtilis 168; complex medium, 4 µM): 100,0%
Lag Phase (Bacillus subtilis 168; complex medium, 40 µM): 107,1%
Lag Phase (Bacillus subtilis 168; complex medium, 400 µM): 185,2%
Lag Phase (Bacillus subtilis 168; minimal medium, 4 µM): 104,9%
Lag Phase (Bacillus subtilis 168; minimal medium, 40 µM): 106,1%
Lag Phase (Bacillus subtilis 168; minimal medium, 400 µM): 143,2%
